The record followed here is patent US12318452B2, “Degraders of WEE1 kinase” (DANA-FARBER CANCER INSTITUTE, INC., priority 2018, dated 2025).

The test system of experiment [1] is MOLT4 cells. The experiment is described as follows: Cell cycle analysis by propidium iodide staining. It is filed as cell-based. On the procedure: MOLT4 cells were plated at 1.5 million cells per well in a 6-well plate, with 3 mL of media per well. Immediately after plating, cells were treated with the indicated concentrations of the indicated compound. At the indicated time points, cells were collected by transferring each well to a 15 mL conical, centrifuging (1000 rpm for 3 min), and then washing the cell pellet 3× with cold PBS. Cell pellets were then fixed with 1 mL cold 80% ethanol in PBS at 4° C. overnight. The cell pellets were then washed by adding 1 mL of PBS and then centrifuging (1500 rpm for 5 minutes), followed by aspiration of the PBS/ethanol mix. Cells were resuspended in cell cycle staining solution (100 μg/mL of RNAse A (Roche, 10109169001) and 50 μg/mL propidium iodide (Life Technologies™, P1304MP), diluted in PBS, and incubated for 10 minutes at room temperature. Cell cycle data was acquired by flow cytometry on a Guava® easyCyte™ flow cytometer (Millipore™) using the InCyte™ software. Data was analyzed using FlowJo®. N=3 biological replicates were used for each treatment condition.

For experiment [2], the system named is OVCAR8 cells. Nature of the experiment: Synergy experiment, CellTiter-Glo co-treatment for 72 hours. It is filed as cell-based. The note with it: 72-hr co-treatment with Olaparib.
The target of experiment [3] is PLK1 (Homo sapiens, UniProt P53350). The experiment is described as follows: Z′-LYTE kinase activity assay for PLK1. The conditions noted are these: Km ATP, average of two replicates ± SD. Set-up: purchased Life Technologies (Invitrogen) commercial assay service. It is filed as biochemical. On the procedure:
LanthaScreen™ assays were conducted for Wee1 in a 10-point dose response as performed in the commercial assay service by Life Technologies™. Z′-LYTE™ assays were conducted for PLK1 as performed in the commercial assay service by Life Technologies™ in a 10-point dose response using Km ATP concentrations.
The selectivity of Wee1 degradation was then assessed by performing multiplexed mass spectrometry (MS)-based proteomics in MOLT4 cells treated with 100 nM of compound 13 for 2 hours (Donovan et al., Elife 7:e38430 (2018)).

Experiment [4] has as its target Wee1 (Homo sapiens, UniProt P30291). Nature of the experiment: Wee1 degradation immunoblot in MOLT4 cells, 5-hr dose response and time course. Type of experiment: cell-based. Set-up: endogenous in cells; host or cells: MOLT4 (wild type; CRBN-/- as control). The note with it: for Wee1 degradation: 5-hr exposure, 100 nM-10 μM. On the procedure:
Whole cell lysates for immunoblotting were prepared by pelleting cells from each cell line at 4° C. (300 g) for 5 minutes. The resulting cell pellets were washed 1× with ice-cold PBS and then resuspended in RIPA lysis buffer (Sigma, cat #R0278) supplemented with protease and phosphatase inhibitor tablets (Roche cat #4906845001). Lysates were clarified at 14,000 rpm for 15 minutes at 4° C. prior to quantification by BCA assay (Pierce™, cat #23225). Whole cell lysates were loaded into Bolt 4-12% Bis-Tris Gels (Thermo Fisher, cat #NW04120BOX) and separated by electrophoreses at 95 V for 1.5 hours. The gels were transferred to a nitrocellulose membrane using the iBlot® Gel Transfer at P3 for 7 minutes (Thermo Fisher, cat #IB23001) and then blocked for 1 hour at room temperature in Odyssey® blocking buffer (LICOR® Biosciences, cat #927-50010). Membranes were probed using antibodies against the relevant proteins at 4° C. overnight in 20% Odyssey® Blocking Buffer in 1×TBST. Membranes were then washed three times with 1×TBST (at least 5 minutes per wash) followed by incubation with the IRDye® goat anti-mouse (LICOR®, cat #926-32210) or goat anti-rabbit (LICOR®, cat #926-32211) secondary antibody (diluted 1:10,000) in 20% Odyssey® Blocking Buffer in 1×TBST for 1 hour at room temperature. After three washes with 1×TBST (at least 5 minutes per wash), the immunoblots were visualized using the ODYSSEY® Infrared Imaging System (LICOR®).
MOLT4 cells were plated at 1.5 million cells per well in a 6-well plate, with 3 mL of media per well. Cells were then immediately treated with the indicated concentration of the indicated compound and incubated for the indicated amount of time. Cells were collected by transferring each well to a 15 mL conical, centrifuging (1000 rpm for 3 min), then washing the cell pellet 2× with cold PBS. Each cell pellet was then lysed in 100 μL of RIPA lysis buffer (+protease/phosphatase inhibitors). Samples were normalized and prepped in 4×LDS+10% β-mercaptoethanol and boiled for 5 min at 95° C. Lysates were probed for specified proteins by western blotting using the Bolt® system (Life Technologies™)
To confirm that compound 13-mediated Wee1 degradation is CRBN dependent (FIG. 1D), Wee1 degradation profiles in parental versus CRBN^−/− MOLT4 cells were compared. In parental MOLT4 cells, compound 13 induced potent Wee1 degradation after 5 hours, with maximal degradation observed at 100 nM and a “hook effect” apparent at the top concentration of 10 μM, where compound 13:CRBN and compound 13-Wee1 binary complexes inhibit the formation of a productive ternary complex (Toure and Crews, Angew. Chem. 55:1966-1973 (2016)).
To evaluate the kinetics of Wee1 degradation, a time course study was performed in MOLT4 cells using 100 nM compound 13. Degradation occurred rapidly, with over 50% degradation achieved within 30 min, and complete degradation reached by 3 hr (FIG. 4C).

Where [5] appears, read: 100 nM, MOLT4 cells, time course.

Wee1, sequence (P30291 whole entry): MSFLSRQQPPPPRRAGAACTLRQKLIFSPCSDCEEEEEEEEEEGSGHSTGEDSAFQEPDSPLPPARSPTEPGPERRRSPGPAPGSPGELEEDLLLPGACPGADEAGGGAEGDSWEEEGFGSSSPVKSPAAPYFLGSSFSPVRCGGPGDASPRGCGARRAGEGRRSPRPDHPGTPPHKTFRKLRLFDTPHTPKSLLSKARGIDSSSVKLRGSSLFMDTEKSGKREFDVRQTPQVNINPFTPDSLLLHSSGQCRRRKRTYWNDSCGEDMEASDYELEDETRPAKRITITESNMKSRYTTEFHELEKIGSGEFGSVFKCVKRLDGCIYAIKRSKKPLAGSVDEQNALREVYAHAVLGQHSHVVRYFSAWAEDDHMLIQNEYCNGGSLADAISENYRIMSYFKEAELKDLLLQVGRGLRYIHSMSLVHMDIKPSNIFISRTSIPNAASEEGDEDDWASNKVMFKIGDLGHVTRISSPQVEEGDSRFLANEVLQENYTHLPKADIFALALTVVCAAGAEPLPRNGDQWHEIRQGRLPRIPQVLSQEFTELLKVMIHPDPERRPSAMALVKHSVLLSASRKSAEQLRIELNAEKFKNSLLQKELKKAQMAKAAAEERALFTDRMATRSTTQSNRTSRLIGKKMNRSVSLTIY
PLK1, sequence (P53350 whole entry): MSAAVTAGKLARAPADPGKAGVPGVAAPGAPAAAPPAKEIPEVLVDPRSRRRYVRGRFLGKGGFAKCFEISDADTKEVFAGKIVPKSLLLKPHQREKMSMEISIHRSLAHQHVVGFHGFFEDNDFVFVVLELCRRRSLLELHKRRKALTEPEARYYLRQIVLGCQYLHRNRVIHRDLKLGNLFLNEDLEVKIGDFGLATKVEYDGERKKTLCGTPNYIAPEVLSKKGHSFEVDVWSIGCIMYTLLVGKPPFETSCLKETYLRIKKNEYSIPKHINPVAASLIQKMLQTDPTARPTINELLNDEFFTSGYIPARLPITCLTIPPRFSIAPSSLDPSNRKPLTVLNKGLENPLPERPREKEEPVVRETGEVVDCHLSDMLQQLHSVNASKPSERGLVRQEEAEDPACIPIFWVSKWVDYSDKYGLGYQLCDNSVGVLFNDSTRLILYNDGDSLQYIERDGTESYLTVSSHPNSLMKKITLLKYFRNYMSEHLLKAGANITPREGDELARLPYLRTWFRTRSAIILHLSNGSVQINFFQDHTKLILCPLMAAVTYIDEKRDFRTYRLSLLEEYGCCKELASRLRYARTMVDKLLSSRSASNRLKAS

The molecule `C=CCn1c(=O)c2cnc(Nc3ccc(N4CCN(CCCNc5cccc6c5C(=O)N(C5CCC(=O)NC5=O)C6=O)CC4)cc3)nc2n1-c1cccc(C(C)(C)O)n1` (centres unmarked) [Compound 13, 4-((3-(4-(4-((2-allyl-1-(6-(2-hydroxypropan-2-yl)pyridin-2-yl)-3-oxo-2,3-dihydro-1H-pyrazolo[3,4-d]pyrimidin-6-yl)amino)phenyl)piperazin-1-yl)propyl)amino)-2-(2,6-dioxopiperidin-3-yl)isoindoline-1,3-dione] yielded a G2-M cells in experiment [1] (100 nM, 24-hr treatment, MOLT4 cells, control 19%) of 34%. The “Cell cycle effects in CRBN−/− cells” value in experiment [1] (CRBN−/− MOLT4 cells, 24 hours) is reported as “absent”. In experiment [1] (MOLT4 cells), the “Fold lower doses than AZD1775 inducing premature mitotic entry” value worked out at 10 fold. Also, in experiment [2], the “Synergy with Olaparib” value is reported as “synergized with Olaparib”. The molecule also gave an IC50 in experiment [3] of 102 nM. Besides, the “Time to complete Wee1 degradation” value in experiment [4] (100 nM, MOLT4 cells) is no more than 3 h. The “Wee1 degradation achieved within 30 min” value in experiment [4] (setting [5]) is reported as “over 50%”. For the same molecule, the “Effect on Wee1 abundance in CRBN−/− cells” value in experiment [4] (CRBN−/− MOLT4 cells, 5 hours) is reported as “no effect on Wee1 abundance”. Besides, the Wee1 degradation result in experiment [4] (MOLT4 cells) was “degraded Wee1”. Moreover, the “Concentration giving maximal (sufficient) Wee1 degradation” value in experiment [4] (MOLT4 cells, 5-hr treatment) is given as 100 nM. Further, the “Concentration at which hook effect is apparent” value in experiment [4] (parental MOLT4 cells, 5 hours) worked out at 10 µM. Besides, the “Duration of sustained loss of Wee1” value in experiment [4] (single 100 nM treatment, MOLT4 cells) was “at least 48 hrs”.
Take `C=CCn1c(=O)c2cnc(Nc3ccc(N4CCN(CCCNc5cccc6c5C(=O)N(C5CCC(=O)N(C)C5=O)C6=O)CC4)cc3)nc2n1-c1cccc(C(C)(C)O)n1` (centres unmarked) [Compound 20, 4-((3-(4-(4-((2-allyl-1-(6-(2-hydroxypropan-2-yl)pyridin-2-yl)-3-oxo-2,3-dihydro-1H-pyrazolo[3,4-d]pyrimidin-6-yl)amino)phenyl)piperazin-1-yl)propyl)amino)-2-(1-methyl-2,6-dioxopiperidin-3-yl)isoindoline-1,3-dione]: in experiment [1] (100 nM, 24-hr, MOLT4 cells), the “Effect on the cell cycle” value is recorded as “did not appreciably affect the cell cycle”. Also, the “Synergy with Olaparib” value in experiment [2] is “less synergistic activity”. In addition, the midpoint of inhibition in experiment [3], the IC50, lay at 43 ± 4 nM. The “Effect on Wee1 protein levels over time” value in experiment [4] (setting [5]) was “no effect on Wee1 protein levels”. In experiment [4] (MOLT4 cells), the Wee1 degradation entry is listed as “did not degrade Wee1”.

As usually defined, the IC50 is the concentration that gives 50% inhibition.
